# Source: ChEMBL document CHEMBL3813628, “Molecular similarity guided optimization of novel Nrf2 activators with 1,2,4-oxadiazole core” (Bioorg Med Chem, 2016)
# The source made the active and inactive calls. The calls are words filed in the database; no cut-off is given here.
# Tests used:
# [1] = biological target: T1, Nuclear factor erythroid 2-related factor 2 (Homo sapiens) (UniProt Q16236); assay: Activation of Nrf2 in human HepG2 cells at 5 uM incubated for 12 hrs by ARE-driven luciferase reporter gene assay relative to control; assay type: cell-based
# T1 sequence (whole entry): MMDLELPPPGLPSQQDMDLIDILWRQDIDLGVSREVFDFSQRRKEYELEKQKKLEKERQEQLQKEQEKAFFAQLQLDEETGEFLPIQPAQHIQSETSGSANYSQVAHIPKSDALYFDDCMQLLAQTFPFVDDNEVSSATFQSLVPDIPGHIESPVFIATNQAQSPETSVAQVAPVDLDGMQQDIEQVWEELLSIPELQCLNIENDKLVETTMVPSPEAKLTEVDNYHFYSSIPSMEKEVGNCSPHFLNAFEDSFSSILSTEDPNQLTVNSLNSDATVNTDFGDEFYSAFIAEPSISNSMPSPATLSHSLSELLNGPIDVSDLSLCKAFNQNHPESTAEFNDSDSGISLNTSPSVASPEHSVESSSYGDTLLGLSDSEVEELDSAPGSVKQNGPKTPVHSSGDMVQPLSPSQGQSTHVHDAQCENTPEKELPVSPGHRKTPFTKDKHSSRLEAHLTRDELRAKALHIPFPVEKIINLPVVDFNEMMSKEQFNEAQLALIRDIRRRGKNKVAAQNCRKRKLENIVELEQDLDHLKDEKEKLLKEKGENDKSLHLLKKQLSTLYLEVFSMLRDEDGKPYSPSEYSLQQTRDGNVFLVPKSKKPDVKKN
# [2] = biological target: T1, Nuclear factor erythroid 2-related factor 2 (Homo sapiens); assay: Activation of Nrf2 in human HepG2 cells at 20 uM incubated for 12 hrs by ARE-driven luciferase reporter gene assay relative to control; assay type: cell-based
# [3] = biological target: T1, Nuclear factor erythroid 2-related factor 2 (Homo sapiens); assay: Activation of Nrf2 in human HepG2 cells at 40 uM incubated for 12 hrs by ARE-driven luciferase reporter gene assay relative to control; assay type: cell-based
# L02 = assay: (§1) Cytoprotective activity against H2O2-induced cytotoxicity in human L02 cells assessed as cell viability pretreated at 20 uM for 24 hrs followed by H2O2 challenge for 12 hrs by MTT assay (reference value: 50%); assay type: functional
# [4] = biological target: T1, Nuclear factor erythroid 2-related factor 2 (Homo sapiens); assay: Activation of Nrf2 in human HepG2 cells at 80 uM incubated for 12 hrs by ARE-driven luciferase reporter gene assay relative to control; assay type: cell-based
# [5] = biological target: T1, Nuclear factor erythroid 2-related factor 2 (Homo sapiens); assay: Activation of Nrf2 in human HepG2 cells at 160 uM incubated for 12 hrs by ARE-driven luciferase reporter gene assay relative to control; assay type: cell-based
# [6] = biological target: T1, Nuclear factor erythroid 2-related factor 2 (Homo sapiens); assay: Activation of Nrf2 in human HepG2 cells at 0.2 uM incubated for 12 hrs by ARE-driven luciferase reporter gene assay relative to control; assay type: cell-based
# [7] = Cytotoxicity against human NCM460 cells assessed as cell viability at low to medium concentration after 24 hrs by MTT assay relative to control; assay type: cell-based; details: ncm460, 24 h
# NCM460 = assay: (§2) Cytoprotective activity against H2O2-induced cytotoxicity in human NCM460 cells assessed as cell viability pretreated at 20 uM for 24 hrs followed by H2O2 challenge for 12 hrs by MTT assay (reference value: 50%); assay type: functional
# [8] = Cytotoxicity against human L02 cells assessed as cell viability at low to medium concentration after 24 hrs by MTT assay relative to control; assay type: cell-based; details: l02, 24 h
# [9] = biological target: T1, Nuclear factor erythroid 2-related factor 2 (Homo sapiens); assay: Activation of Nrf2 in human HepG2 cells at 2 uM incubated for 12 hrs by ARE-driven luciferase reporter gene assay relative to control; assay type: cell-based
# PC-12 = assay: (§3) Cytoprotective activity against H2O2-induced cytotoxicity in rat PC12 cells assessed as cell viability pretreated at 20 uM for 24 hrs followed by H2O2 challenge for 12 hrs by MTT assay (reference value: 50%); assay type: functional
# [10] = biological target: T1, Nuclear factor erythroid 2-related factor 2 (Homo sapiens); assay: Activation of Nrf2 in human HepG2 cells at 0.02 uM incubated for 12 hrs by ARE-driven luciferase reporter gene assay relative to control; assay type: cell-based
# [11] = Cytotoxicity against rat PC12 cells assessed as cell viability at low to medium concentration after 24 hrs by MTT assay relative to control; assay type: cell-based; details: pc-12, 24 h
# [12] = Cytotoxicity against human NCM460 cells assessed as cell viability at 20 uM after 24 hrs by MTT assay relative to control; assay type: cell-based; details: ncm460, 24 h
# [13] = Cytotoxicity against human NCM460 cells assessed as cell viability at 160 uM after 24 hrs by MTT assay relative to control; assay type: cell-based; details: read-out: Activity
# [14] = as §1; assay type: functional; details: read-out: Activity
# [15] = biological target: T1, Nuclear factor erythroid 2-related factor 2 (Homo sapiens); assay: Induction of Nrf2 translocation into nucleus in human NCM460 cells after 12 hrs by DAPI staining-based laser scanning confocal microscopic analysis; assay type: cell-based
# [16] = Cytotoxicity against human L02 cells assessed as cell viability at 160 uM after 24 hrs by MTT assay relative to control; assay type: cell-based; details: read-out: Activity
# [17] = biological target: T1, Nuclear factor erythroid 2-related factor 2 (Homo sapiens); assay: Activation of Nrf2 expression in human HCT116 cells after 8 hrs by western blot analysis; assay type: cell-based; details: HCT-116
# [18] = biological target: T1, Nuclear factor erythroid 2-related factor 2 (Homo sapiens); assay: Activation of Nrf2 in human HepG2 cells incubated for 12 hrs by ARE-driven luciferase reporter gene assay relative to control; assay type: cell-based
# [19] = biological target: T1, Nuclear factor erythroid 2-related factor 2 (Homo sapiens); assay: Activation of Nrf2 in human HCT116 cells assessed as upregulation of gamma-GCS after 8 hrs by western blot analysis; assay type: cell-based; details: HCT-116
# [20] = Cytotoxicity against rat PC12 cells assessed as cell viability at 20 uM after 24 hrs by MTT assay relative to control; assay type: cell-based; details: pc-12, 24 h
# [21] = biological target: T2, Nuclear factor erythroid 2-related factor 2 (Rattus norvegicus) (UniProt O54968); assay: Induction of Nrf2 translocation into nucleus in rat PC12 cells after 12 hrs by DAPI staining-based laser scanning confocal microscopic analysis; assay type: cell-based; details: PC-12
# T2 sequence (whole entry): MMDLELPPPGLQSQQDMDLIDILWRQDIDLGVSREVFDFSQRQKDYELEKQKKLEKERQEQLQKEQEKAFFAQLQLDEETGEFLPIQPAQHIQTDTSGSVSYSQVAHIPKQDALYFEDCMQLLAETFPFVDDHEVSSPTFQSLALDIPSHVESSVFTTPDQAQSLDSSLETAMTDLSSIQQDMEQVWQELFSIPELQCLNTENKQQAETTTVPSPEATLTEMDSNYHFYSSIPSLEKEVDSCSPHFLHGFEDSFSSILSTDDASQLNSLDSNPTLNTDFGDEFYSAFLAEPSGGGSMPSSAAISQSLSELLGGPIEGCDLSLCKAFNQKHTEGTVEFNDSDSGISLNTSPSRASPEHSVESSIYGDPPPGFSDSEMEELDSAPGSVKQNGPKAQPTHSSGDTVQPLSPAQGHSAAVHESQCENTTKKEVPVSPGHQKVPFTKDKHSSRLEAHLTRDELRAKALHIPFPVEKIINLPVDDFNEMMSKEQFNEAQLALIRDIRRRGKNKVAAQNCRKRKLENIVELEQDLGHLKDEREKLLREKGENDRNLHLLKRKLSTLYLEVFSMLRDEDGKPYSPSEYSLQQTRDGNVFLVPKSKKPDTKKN
# [22] = biological target: T1, Nuclear factor erythroid 2-related factor 2 (Homo sapiens); assay: Activation of Nrf2 in human HCT116 cells assessed as upregulation of HO-1 after 8 hrs by western blot analysis; assay type: cell-based; details: HCT-116
# [23] = biological target: T1, Nuclear factor erythroid 2-related factor 2 (Homo sapiens); assay: Induction of Nrf2 translocation into nucleus in human L02 cells after 12 hrs by DAPI staining-based laser scanning confocal microscopic analysis; assay type: cell-based
# [24] = biological target: T1, Nuclear factor erythroid 2-related factor 2 (Homo sapiens); assay: Induction of Nrf2 translocation from cytoplasm to nucleus in human HCT116 cells at 20 uM by western blot analysis; assay type: cell-based; details: HCT-116, TDE = time-dependent effect
# [25] = as §2; assay type: functional; details: read-out: Activity
# [26] = Cytotoxicity against human HCT116 cells assessed as cell viability after 24 hrs by MTT assay; assay type: cell-based; details: hct-116, 24 h
# [27] = Cytotoxicity against rat PC12 cells assessed as cell viability at 160 uM after 24 hrs by MTT assay relative to control; assay type: cell-based, PC-12; details: read-out: Activity
# [28] = biological target: T1, Nuclear factor erythroid 2-related factor 2 (Homo sapiens); assay: Activation of Nrf2 in human HCT116 cells assessed as upregulation of NQO1 after 8 hrs by western blot analysis; assay type: cell-based; details: HCT-116
# [29] = Cytotoxicity against human L02 cells assessed as cell viability at 20 uM after 24 hrs by MTT assay relative to control; assay type: cell-based; details: l02, 24 h
# [30] = as §3; assay type: functional; details: PC-12, read-out: Activity
structure (smiles),measurement,setting,value
COc1ccc(Cl)cc1-c1nc(-c2ccc3oc(C)nc3c2)no1,fold change (FC),[1],3.62
same,fold change (FC),[2],3.72
CC(C)(C)c1cc(O)ccc1O [E319],fold change (FC),[3],2.14
same,Activity,L02,Active
same,fold change (FC),[4],5.2
same,fold change (FC),[5],8.46
same,fold change (FC),[6],1.25
same,Activity,[7],Non-toxic
same,Activity,NCM460,Active
same,Activity,[8],Non-toxic
same,fold change (FC),[9],1.24
same,Activity,PC-12,Active
same,fold change (FC),[10],1.18
same,Activity,[11],Non-toxic
c1ccc(-c2nc3cc(-c4noc(-c5ccc6[nH]cnc6c5)n4)ccc3o2)cc1,fold change (FC),[3],5.43
same,fold change (FC),[1],4.55
same,fold change (FC),[4],8.23
same,fold change (FC),[5],17.7
same,fold change (FC),[6],4.42
same,fold change (FC),[9],3.21
same,fold change (FC),[10],1.81
same,fold change (FC),[2],6.96
Cn1cnc2ccc(-c3noc(-c4ccc5cc[nH]c5c4)n3)cc21,fold change (FC),[3],12.4
same,fold change (FC),[1],4.1
same,fold change (FC),[4],12.1
same,fold change (FC),[5],8.73
same,fold change (FC),[6],1.5
same,fold change (FC),[9],3.35
same,fold change (FC),[10],1.09
same,fold change (FC),[2],5.47
Clc1cc(-c2nc(-c3ccc4oc(-c5ccccc5)nc4c3)no2)ccn1,fold change (FC),[3],6.38
same,fold change (FC),[1],4.64
same,fold change (FC),[4],9.84
same,fold change (FC),[5],10.5
same,fold change (FC),[6],3.41
same,fold change (FC),[9],4.64
same,fold change (FC),[10],3.08
same,fold change (FC),[2],6.64
Cc1nc2cc(-c3noc(-c4cnccn4)n3)ccc2o1,fold change (FC),[3],15.5
same,Activity,[12],Non-toxic
same,"viability at 24 h, 160 µM",[13],80%
same,fold change (FC),[1],6.85
same,viability at 20 µM,[14],85%
same,Activity,[15],Dose-dependent effect
same,"viability at 24 h, 160 µM",[16],80%
same,fold change (FC),[4],17.1
same,fold change (FC),[5],15.3
same,Activity,[17],Dose-dependent effect
same,fold change (FC),[6],4.98
same,Activity,[18],Dose-dependent effect
same,Activity,[19],Dose-dependent effect
same,Activity,[20],Non-toxic
same,Activity,[7],Non-toxic
same,Activity,[21],Dose-dependent effect
same,Activity,[22],Dose-dependent effect
same,Activity,[23],Dose-dependent effect
same,Activity,[24],tde
same,viability at 20 µM,[25],90%
same,Activity,[26],Non-toxic
same,Activity,[8],Non-toxic
same,"viability at 24 h, 160 µM",[27],80%
same,Activity,[28],Dose-dependent effect
same,fold change (FC),[9],4.67
same,Activity,[29],Non-toxic
same,viability at 20 µM,[30],80%
same,fold change (FC),[10],3.42
same,fold change (FC),[2],9.57
same,Activity,[11],Non-toxic
Cc1nc2cc(-c3noc(-c4cccc(C#N)c4)n3)ccc2o1,fold change (FC),[1],4.76
same,fold change (FC),[2],2.6
CC(C)n1c(=O)[nH]c2cc(-c3noc(C4CCCCC4)n3)ccc21,fold change (FC),[3],7.33
same,fold change (FC),[1],4.98
same,fold change (FC),[4],6.17
same,fold change (FC),[5],5.74
same,fold change (FC),[6],6.14
same,fold change (FC),[9],7.51
same,fold change (FC),[10],3.81
same,fold change (FC),[2],6.28
Cc1nc2cc(-c3noc(-c4ccc5[nH]cnc5c4)n3)ccc2o1,fold change (FC),[3],8.94
same,fold change (FC),[1],4.38
same,fold change (FC),[4],4.88
same,fold change (FC),[5],2.51
same,fold change (FC),[6],2.35
same,fold change (FC),[9],3.95
same,fold change (FC),[10],1.89
same,fold change (FC),[2],7.98
Cc1nc2cc(-c3noc(-c4cccnc4)n3)ccc2o1,fold change (FC),[1],3.29
same,fold change (FC),[2],7.08
